pIC50: −log10 of the molar value.
biological target: Human Cot (Homo sapiens (Human), UniProt P41279); experiment: High Throughput Cot Biochemical Assay; settings: IC50 HTRF, Cot HTRF (TR-FRET KinEASE) biochemical assay, 400 μM ATP
Sequence (P41279 30-397): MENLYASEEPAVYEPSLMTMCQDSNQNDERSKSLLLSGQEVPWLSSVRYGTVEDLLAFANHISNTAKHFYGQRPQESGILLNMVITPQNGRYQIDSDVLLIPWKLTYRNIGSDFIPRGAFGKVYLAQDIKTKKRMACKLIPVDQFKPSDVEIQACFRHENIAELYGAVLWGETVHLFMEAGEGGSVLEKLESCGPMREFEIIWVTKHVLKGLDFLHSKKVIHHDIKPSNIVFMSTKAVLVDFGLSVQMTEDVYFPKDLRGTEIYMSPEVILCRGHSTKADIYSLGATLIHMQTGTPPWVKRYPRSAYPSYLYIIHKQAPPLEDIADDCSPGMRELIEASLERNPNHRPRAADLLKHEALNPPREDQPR

**Q.** With `Cn1ccc2c([C@H](Nc3cc(C#N)c4ncc(C#N)c(NCC(C)(C)C)c4c3)c3cn(C4(C(F)F)CC4)nn3)ccnc21` [Example 873, (S)-6-(((1-(1-(difluoromethyl)cyclopropyl)-1H-1,2,3-triazol-4-yl)(1-methyl-1H-pyrrolo[2,3-b]pyridin-4-yl)methyl)amino)-4-(neopentylamino)quinoline-3,8-dicarbonitrile] as the compound, how does the pIC50 read?
**A.** 8.30

same assay, conditions: IC50 HTRF, Cot HTRF (TR-FRET) biochemical assay

**Q.** With `CC(C)(C)CNc1c(C#N)cnc2c(Cl)cc(N[C@H](c3cn(C4(C(F)F)CC4)nn3)c3cccc4c3CNC4)cc12` [Example 445, (S)-8-chloro-6-(((1-(1-(difluoromethyl)-cyclopropyl)-1H-1,2,3-triazol-4-yl)(isoindolin-4-yl)methyl)amino)-4-(neopentylamino)quinoline-3-carbonitrile] as the compound, how does the pIC50 read?
**A.** 8.70

**Q.** With `Cn1cnc2cccc([C@H](Nc3cc(Cl)c4ncc(C#N)c(NCC(C)(C)C)c4c3)c3cn(C4(C(F)F)CC4)nn3)c21` [Example 499, (S)-8-chloro-6-(((1-(1-(difluoromethyl)-cyclopropyl)-1H-1,2,3-triazol-4-yl)(1-methyl-1H-benzo[d]imidazol-7-yl)methyl)amino)-4-(neopentylamino)-quinoline-3-carbonitrile] as the compound, how does the pIC50 read?
**A.** 8.52

**Q.** `N#Cc1cnc2c(Cl)cc(NC(c3cccnc3)c3cn(C4CCN(C(=O)OCc5ccccc5)CC4)nn3)cc2c1Nc1ccc(F)c(Cl)c1` (stereo not shown) [Example 404, benzyl 4-(4-(((8-chloro-4-((3-chloro-4-fluorophenyl)amino)-3-cyanoquinolin-6-yl)amino)(pyridin-3-yl)methyl)-1H-1,2,3-triazol-1-yl)piperidine-1-carboxylate] was tested. Which pIC50 did it give?
**A.** 6.63

**Q.** How did the pIC50 turn out when `N#Cc1cnc2c(Cl)cc(NC(c3cccnc3)c3cn([C@@H]4CCNC4)nn3)cc2c1Nc1ccc(F)c(Cl)c1` (stereo partly drawn) [Example 401, 8-chloro-4-((3-chloro-4-fluoro-phenyl)amino)-6-((pyridin-3-yl(1-((R)-pyrrolidin-3-yl)-1H-1,2,3-triazol-4-yl)methyl)amino)quinoline-3-carbonitrile] was run?
**A.** 8.00

**Q.** With `CCN1CCC(n2cc([C@@H](Nc3cc(Cl)c4ncc(C#N)c(Nc5ccc(F)c(Cl)c5)c4c3)c3ccsc3)nn2)CC1` [Example 392, (S)-8-chloro-4-((3-chloro-4-fluoro-phenyl)amino)-6-(((1-(1-ethylpiperidin-4-yl)-1H-1,2,3-triazol-4-yl)(thiophen-3-yl)methyl)amino)quinoline-3-carbonitrile] as the compound, how does the pIC50 read?
**A.** 8.52

**Q.** With `CC1(n2cc([C@@H](Nc3cc(Cl)c4ncc(C#N)c(NCC(C)(C)C(F)(F)F)c4c3)c3cccc4ncccc34)nn2)CC1` [Example 797, (S)-8-chloro-6-(((1-(1-methylcyclopropyl)-1H-1,2,3-triazol-4-yl)(quinolin-5-yl)methyl)amino)-4-((3,3,3-trifluoro-2,2-dimethylpropyl)amino)quinoline-3-carbonitrile] as the compound, how does the pIC50 read?
**A.** 8.52

**Q.** `CC(C)(C)CNc1c(C#N)cnc2c(C#N)cc(N[C@H](c3cn(C4(C(F)(F)F)CC4)nn3)c3csc4c3CCN(C3COC3)C4)cc12` [Example 429, (S)-4-(neopentylamino)-6-(((6-(oxetan-3-yl)-4,5,6,7-tetrahydrothieno[2,3-c]pyridin-3-yl)(1-(1-(trifluoromethyl)cyclopropyl)-1H-1,2,3-triazol-4-yl)methyl)amino)-quinoline-3,8-dicarbonitrile] was tested. Which pIC50 did it give?
**A.** 8.70

**Q.** How did the pIC50 turn out when `[2H]C(Nc1cc(Cl)c2ncc(C#N)c(NCC(C)(C)C)c2c1)(c1cn(C2CC2)nn1)c1ccc(F)nc1C` (stereo not shown) [Example 111, 8-chloro-6-(((1-cyclopropyl-1H-1,2,3-triazol-4-yl)(6-fluoro-2-methylpyridin-3-yl)methyl-d)amino)-4-(neopentylamino)quinoline-3-carbonitrile] was run?
**A.** 8.70

same assay, conditions: read-out: IC50 HTRF; Cot HTRF (TR-FRET) biochemical assay

**Q.** `Cn1cc([C@H](Nc2cc(Cl)c3ncc(C#N)c(Nc4ccc(F)c(Cl)c4)c3c2)c2cccnc2)nn1` [Example 343, (R)-8-chloro-4-((3-chloro-4-fluorophenyl)amino)-6-(((1-methyl-1H-1,2,3-triazol-4-yl)(pyridin-3-yl)methyl)amino)quinoline-3-carbonitrile] was tested. Which pIC50 did it give?
**A.** 6.30

Reference: patent publication US11066414B2, “Cot modulators and methods of use thereof” (Gilead Sciences, Inc., priority 2015, dated 2021)
